Assay results as given in patent US6525059B1, “Substituted pyrazoles as p38 kinase inhibitors” (G. D. Searle & Company, priority 1998, dated 2003).
Where two headings read alike, the source gives them in different places.

Biological target: T1, human p38 kinase alpha (Homo sapiens, UniProt Q16539)
T1 construct: The coding region of the human p38a cDNA was obtained by PCR-amplification from RNA isolated from the human monocyte cell line THP.1; GST (N); made in house; host or cells: E. coli DH10B
T1 sequence (Q16539 whole entry): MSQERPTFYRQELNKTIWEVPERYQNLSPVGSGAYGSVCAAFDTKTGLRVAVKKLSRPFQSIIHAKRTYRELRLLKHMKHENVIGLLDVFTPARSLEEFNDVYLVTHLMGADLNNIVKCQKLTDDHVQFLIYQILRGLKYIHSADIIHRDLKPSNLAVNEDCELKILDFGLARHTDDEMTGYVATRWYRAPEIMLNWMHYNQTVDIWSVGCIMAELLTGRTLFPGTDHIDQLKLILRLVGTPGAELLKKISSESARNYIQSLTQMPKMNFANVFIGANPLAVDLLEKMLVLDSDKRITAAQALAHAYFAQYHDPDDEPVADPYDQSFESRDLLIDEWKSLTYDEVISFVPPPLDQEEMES
Experiment: p38 kinase in vitro assay, phosphorylation of biotinylated PHAS-I with gamma 32P-ATP
Type: biochemical
Conditions: for P38 alpha kinase % inhib @ conc. / inhibition at 1 µM: @ 1.0 uM; for inhibition at 1 µM / inhibition at 10 µM: read-out: P38 alpha kinase % inhib @ conc.
Method: The ability of compounds to inhibit human p38 kinase alpha was evaluated using two in vitro assay methods. In the first method activated human p38 kinase alpha phosphorylates a biotinylated substrate, PHAS-I (phosphorylated heat and acid stable protein-insulin inducible), in the presence of gamma ^32P-ATP (^32P-ATP). PHAS-I was biotinylated prior to the assay and provides a means of capturing the substrate which is phosphorylated during the assay. p38 Kinase was activated by MKK6. Compounds were tested in 10 fold serial dilutions over the range of 100 μM to 0.001 μM using 1% DMSO. Each concentration of inhibitor was tested in triplicate.
All reactions were carried out in 96 well polypropylene plates. Each reaction well contained 25 mM HEPES pH 7.5, 10 mM magnesium acetate and 50 μM unlabeled ATP. […] The reaction proceeded either for one hour or overnight at 30° C.
Following incubation, 20 μl of reaction mixture was transferred to a high capacity streptavidin coated filter plate (SAM-streptavidin-matrix, Promega) prewetted with phosphate buffered saline. […] Filter plates were air dried and 20 μl of scintillant was added. The plates were sealed and counted.

[1] = activated human p38 kinase alpha, PHAS-I substrate, 50 μM unlabeled ATP, read-out: p38 kinase IC50
[2] = p38α in vitro, PHAS-I assay procedure, read-out: p38^1 IC50

inhibition at 1 µM [%]	Compound	also measured
83	CCOc1ccc2ccccc2c1C(=O)NCc1[nH]nc(-c2ccc(F)cc2)c1-c1ccncc1 [Example B-0059]	–
96	O=C(NCc1[nH]nc(-c2ccc(F)cc2)c1-c1ccncc1)c1ccccc1 [Example B-0063]	–
91	Cc1cccc(C(=O)NCc2[nH]nc(-c3ccc(F)cc3)c2-c2ccncc2)c1 [Example B-0067]	–
96	O=C(NCc1[nH]nc(-c2ccc(F)cc2)c1-c1ccncc1)c1cccc(F)c1 [Example B-0069]	–
92	COc1cccc(OC)c1C(=O)NCc1[nH]nc(-c2ccc(F)cc2)c1-c1ccncc1 [Example B-0070]	–
92	O=C(NCc1[nH]nc(-c2ccc(F)cc2)c1-c1ccncc1)c1ccccc1F [Example B-0074]	–
91	COc1cccc(C(=O)NCc2[nH]nc(-c3ccc(F)cc3)c2-c2ccncc2)c1 [Example B-0075]	–
47	COC(=O)c1ccc(C(=O)NCc2[nH]nc(-c3ccc(F)cc3)c2-c2ccncc2)cc1 [Example B-0082]	–
97	O=C(OCc1ccccc1C(=O)NCc1[nH]nc(-c2ccc(F)cc2)c1-c1ccncc1)c1ccccc1 [Example B-0092]	–
45	Cc1cc(C)c(S(=O)(=O)NCc2[nH]nc(-c3ccc(F)cc3)c2-c2ccncc2)c(C)c1 [Example B-0109]	–
97	O=[N+]([O-])c1ccccc1CS(=O)(=O)NCc1[nH]nc(-c2ccc(F)cc2)c1-c1ccncc1 [Example B-0112]	–
75	O=[N+]([O-])c1ccccc1S(=O)(=O)NCc1[nH]nc(-c2ccc(F)cc2)c1-c1ccncc1 [Example B-0113]	–
79	O=S(=O)(NCc1[nH]nc(-c2ccc(F)cc2)c1-c1ccncc1)c1cccs1 [Example B-0121]	–
66	O=S(=O)(NCc1[nH]nc(-c2ccc(F)cc2)c1-c1ccncc1)c1ccc(Cl)cc1Cl [Example B-0126]	–
82	N#Cc1ccccc1S(=O)(=O)NCc1[nH]nc(-c2ccc(F)cc2)c1-c1ccncc1 [Example B-0127]	–
69	COc1ccc(OC)c(S(=O)(=O)NCc2[nH]nc(-c3ccc(F)cc3)c2-c2ccncc2)c1 [Example B-0130]	–
43	COc1ccc(S(=O)(=O)NCc2[nH]nc(-c3ccc(F)cc3)c2-c2ccncc2)cc1OC [Example B-0131]	–
51	O=S(=O)(NCc1[nH]nc(-c2ccc(F)cc2)c1-c1ccncc1)c1ccccc1F [Example B-0133]	–
78	O=S(=O)(NCc1[nH]nc(-c2ccc(F)cc2)c1-c1ccncc1)c1ccc(Cl)c(Cl)c1 [Example B-0135]	–
41	COc1cc(C)c(S(=O)(=O)NCc2[nH]nc(-c3ccc(F)cc3)c2-c2ccncc2)c(C)c1C [Example B-0137]	–
86	O=S(=O)(NCc1[nH]nc(-c2ccc(F)cc2)c1-c1ccncc1)c1ccc(Cl)s1 [Example B-0144]	–
43	O=C(NCc1ccccc1)NCc1[nH]nc(-c2ccc(F)cc2)c1-c1ccncc1 [Example B-0151]	–

Further lines, the compound ahead of its results:

Compound	inhibition at 1 µM [%]	also measured
Cc1n[nH]c(-c2ccccc2O)c1-c1ccncc1 [Example A-16]	–	IC50 [1]: 3800 nM
COc1cc(F)cc(-c2[nH]nc(C)c2-c2ccncc2)c1 [Example A-25, 4-{5-(3-Fluoro-5-methoxyphenyl)-3-methyl-3-methyl-1H-pyrazol-4-yl}pyridine]	–	IC50 [1]: 2600 nM
Fc1ccc(-c2n[nH]c(NCCN3CCOCC3)c2-c2ccncc2)cc1 [Example A-218, N-[5-(4-fluorophenyl)-4-(4-pyridinyl)-1H-pyrazol-3-yl]-4-morpholineethanamine]	–	IC50 [2]: 44 nM
Fc1ccc(CNc2cc(-c3cn(CCN4CCOCC4)nc3-c3ccc(F)cc3)ccn2)cc1 [Example A-276, N-[(4-fluorophenyl)methyl]-4-[3(or 5)-(4-fluorophenyl)-1-[[2-(4-morpholinyl)ethyl]-1H-pyrazol-4-yl]-2-pyridinamine]	–	IC50 [2]: 176 nM
Fc1ccc(-c2n[nH]cc2-c2ccnc(NC3CCNCC3)c2)cc1 [Example A-277, 4-[3-(4-fluorophenyl)-1H-pyrazol-4-yl]-N-4-piperadinyl-2-pyridinamine]	–	IC50 [2]: 26 nM
OCCNc1cc(-c2c[nH]nc2-c2ccc(F)cc2)ccn1 [Example A-280]	–	IC50 [2]: 134 nM
Cn1cc(-c2ccnc(NCCO)c2)c(-c2ccc(F)cc2)n1 [Example A-281, 2-[[4-[3-(4-fluorophenyl)-1-methyl-1H-pyrazol-4-yl]-2-pyridinyl]amino]ethanol]	–	IC50 [2]: 53 nM
OCCn1cc(-c2ccnc(NCc3ccc(F)cc3)c2)c(-c2ccc(F)cc2)n1 [Example A-283, 3 (or 5)-(4-fluorophenyl)-4-[2-[[(4-fluorophenyl)methyl]amino]-4-pyridinyl]-1H-pyrazole-1-ethanol]	–	IC50 [2]: < 100 nM
Fc1ccc(CNc2cc(-c3cn(CCN4CCOCC4)nc3-c3ccc(F)cc3)ccn2)cc1 [Example A-285, N-[(4-fluorophenyl)methyl]-4-[3-(4-fluorophenyl)-1-[2-(4-morpholinyl)ethyl]-1H-pyrazol-4-yl]-2-pyridinamine]	–	IC50 [2]: < 100 nM
OCCn1cc(-c2ccnc(NCc3ccc(F)cc3)c2)c(-c2ccc(F)cc2)n1 [Example A-289, 3-(4-fluorophenyl)-4-[2-[[(4-fluorophenyl)methyl]amino]-4-pyridinyl]-1H-pyrazole-1-ethanol]	–	IC50 [2]: < 100 nM
O=C(O)CNc1[nH]nc(-c2ccc(F)cc2)c1-c1ccncc1 [Example A-293, N-[5-(4-fluorophenyl)-4-(4-pyridinyl)-1H-pyrazol-3-yl]glycine]	–	IC50 [2]: 730 nM
N#Cc1ccc(C(=O)NCc2[nH]nc(-c3ccc(F)cc3)c2-c2ccncc2)cc1 [Example B-0001]	–	P38 alpha kinase % inhib @ conc.: 53.0% @ 1.0 uM
O=C(NCc1[nH]nc(-c2ccc(F)cc2)c1-c1ccncc1)[C@@H]1C[C@@H]1c1ccccc1 [Example B-0002]	–	P38 alpha kinase % inhib @ conc.: 71.1% @ 1.0 uM
COC(=O)C(=O)NCc1[nH]nc(-c2ccc(F)cc2)c1-c1ccncc1 [Example B-0025]	–	P38 alpha kinase % inhib @ conc.: 89.0% @ 1.0 uM
O=C(NCc1[nH]nc(-c2ccc(F)cc2)c1-c1ccncc1)c1ccc(OC(F)(F)F)cc1 [Example B-0028]	–	P38 alpha kinase % inhib @ conc.: 69.0% @ 1.0 uM
O=C(NCc1[nH]nc(-c2ccc(F)cc2)c1-c1ccncc1)c1cccc2ccccc12 [Example B-0037]	–	P38 alpha kinase % inhib @ conc.: 91.0% @ 1.0 uM
O=C(CCC1CC=CC1)NCc1[nH]nc(-c2ccc(F)cc2)c1-c1ccncc1 [Example B-0038]	–	P38 alpha kinase % inhib @ conc.: 71.0% @ 1.0 uM
O=C(NCc1[nH]nc(-c2ccc(F)cc2)c1-c1ccncc1)C(F)(F)C(F)(F)C(F)(F)F [Example B-0046]	–	P38 alpha kinase % inhib @ conc.: 96.0% @ 1.0 uM

Compound	inhibition at 1 µM [%]	also measured
CCC(C(=O)NCc1[nH]nc(-c2ccc(F)cc2)c1-c1ccncc1)c1ccccc1 (stereo not drawn) [Example B-0048]	–	P38 alpha kinase % inhib @ conc.: 94.0% @ 1.0 uM
Cc1cc(C)c(C(=O)NCc2[nH]nc(-c3ccc(F)cc3)c2-c2ccncc2)c(C)c1 [Example B-0049]	88	–
O=C(NCc1[nH]nc(-c2ccc(F)cc2)c1-c1ccncc1)c1cc(C(F)(F)F)ccc1F [Example B-0050]	–	P38 alpha kinase % inhib @ conc.: 73% @ 1.0 uM
O=C(NCc1[nH]nc(-c2ccc(F)cc2)c1-c1ccncc1)c1cccnc1Cl [Example B-0053]	95	–
O=C(NCc1[nH]nc(-c2ccc(F)cc2)c1-c1ccncc1)c1ccno1 [Example B-0054]	90	–
O=C(NCc1[nH]nc(-c2ccc(F)cc2)c1-c1ccncc1)c1ccc(C(F)(F)F)cc1F [Example B-0061]	62	–
O=C(NCc1[nH]nc(-c2ccc(F)cc2)c1-c1ccncc1)c1ccc(F)cc1C(F)(F)F [Example B-0062]	94	–
COc1cc(OC)cc(C(=O)NCc2[nH]nc(-c3ccc(F)cc3)c2-c2ccncc2)c1 [Example B-0072]	77	–
CC(C)[C@H]1CC[C@@H](C)C[C@@H]1OCC(=O)NCc1[nH]nc(-c2ccc(F)cc2)c1-c1ccncc1 [Example B-0084]	56	–
COc1ccc(C(=O)NCc2[nH]nc(-c3ccc(F)cc3)c2-c2ccncc2)c(OC)c1 [Example B-0086]	91	–
COC(=O)CC(=O)NCc1[nH]nc(-c2ccc(F)cc2)c1-c1ccncc1 [Example B-0091]	96	–
O=C(NCc1[nH]nc(-c2ccc(F)cc2)c1-c1ccncc1)C1CCCN1C(=O)C(F)(F)F (stereo not drawn) [Example B-0094]	–	P38 alpha kinase % inhib @ conc.: 96% @ 1.0 uM
O=C(NCc1[nH]nc(-c2ccc(F)cc2)c1-c1ccncc1)c1cc(F)ccc1F [Example B-0095]	98	–
CC(=O)Nc1nc(C)c(S(=O)(=O)NCc2[nH]nc(-c3ccc(F)cc3)c2-c2ccncc2)s1 [Example B-0097]	–	inhibition at 10 µM: 72%
CCCCCCCCCCS(=O)(=O)NCc1[nH]nc(-c2ccc(F)cc2)c1-c1ccncc1 [Example B-0125]	–	inhibition at 10 µM: 70%
CCCCN(CCCC)c1cccc2c(S(=O)(=O)NCc3[nH]nc(-c4ccc(F)cc4)c3-c3ccncc3)cccc12 [Example B-0139]	–	inhibition at 10 µM: 54%
O=C(NCc1[nH]nc(-c2ccc(F)cc2)c1-c1ccncc1)Nc1ccc(Oc2ccccc2)cc1 [Example B-0155]	–	inhibition at 10 µM: 40%
